Assay results: patent US20120015919A1, “THERAPIES FOR TREATING CANCER USING COMBINATIONS OF COX-2 INHIBITORS AND AROMATASE INHIBITORS OR COMBINATIONS OF COX-2 INHIBITORS AND ESTROGEN RECEPTOR ANTAGONISTS” (Tragara Pharmaceuticals, Inc., priority 2007, published 2012)

Settings: human, in vivo

For `CCOc1ccc(-c2cc(C)cn2-c2ccc(S(N)(=O)=O)cc2)cc1` [2-(4-ethoxyphenyl)-4-methyl-1-(4-sulfamoylphenyl)-pyrrole], the “gastric or duodenal toxicity compared to placebo” value was “no increase”.
